Test results as given in publication PMC7988358, “Characterization of GMPP from Dendrobium huoshanense yielding GDP-D-mannose” (Open Life Sciences, 2021).

Target: T1, DhGMPP (Dendrobium huoshanense, UniProt A0A348HAW3)
T1 construct: gene GMPP; E. coli BL21-AI crude soluble extract, not purified
T1 sequence (A0A348HAW3 1-415): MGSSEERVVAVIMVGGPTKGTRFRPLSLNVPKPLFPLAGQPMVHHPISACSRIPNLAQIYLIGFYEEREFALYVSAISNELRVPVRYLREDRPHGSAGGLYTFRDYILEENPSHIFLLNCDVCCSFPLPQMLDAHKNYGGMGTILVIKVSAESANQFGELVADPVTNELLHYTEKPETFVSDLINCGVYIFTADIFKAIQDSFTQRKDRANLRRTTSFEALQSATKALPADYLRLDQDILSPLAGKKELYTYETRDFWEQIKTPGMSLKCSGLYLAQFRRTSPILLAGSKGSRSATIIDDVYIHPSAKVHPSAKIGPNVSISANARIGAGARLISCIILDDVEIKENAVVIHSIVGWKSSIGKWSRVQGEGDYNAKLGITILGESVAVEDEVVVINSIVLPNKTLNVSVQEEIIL
Assay: HPLC ([…] nm) detection of GDP-mannose formed
Type: biochemical
Settings: 2.5 mM GTP, 5 mM MgCl2, 50 mM Tris-HCl pH 7.4, 37 °C, 10 min, crude E. coli extract, untransformed-host extract and boiled protein as controls

Row | SMILES | HPLC (254 nm) detection of GDP-mannose formed (5 mM α-D-mannose-phosphate) | HPLC (254 nm) detection of GDP-mannose formed (5 mM substrate)
1 | Nc1nc2c(ncn2[C@@H]2O[C@H](COP(=O)(O)OP(=O)(O)OP(=O)(O)O)[C@@H](O)[C@H]2O)c(=O)[nH]1 [GTP] | By utilizing GTP and α-D-mannose-phosphate as substrates, DhGMPP catalyzes the reaction to yield GDP-mannose | –
2 | O=P(O)(O)O[C@H]1O[C@H](CO)[C@@H](O)[C@H](O)[C@@H]1O [α-D-mannose-phosphate] | – | By utilizing GTP and α-D-mannose-phosphate as substrates, DhGMPP catalyzes the reaction to yield GDP-mannose
